Results on 6 compounds are retold here after paper PMC4057637, “Efficacy of novel antibacterial compounds targeting histidine kinase YycG protein” (Applied Microbiology and Biotechnology, 2014).

A short description of one data set: Cytotoxicity, MTT assay. The format is cell-based. The note with it: African green monkey, Vero 76 cells. The method, then: Vero 76 cells (African green monkey cells) were used to determine the cytotoxicity of the derivatives with the Cell Proliferation Kit I (MTT) (Roche, Indianapolis, USA). The Vero cells were grown in Dulbecco’s modified Eagle’s medium (DMEM), supplemented with 5 % fetal calf serum, 100 U/ml penicillin, […] streptomycin, and 2 mM L-glutamine. After culturing in 5 % CO2 at 37 °C for 48 h, the cells were harvested and dispensed into 96-well cell culture plates containing 5 × 10^4 cells per well in 100 μl. The cells were co-incubated with serial twofold dilutions of derivatives from 200 to 6.25 μM (six different concentrations) for 24 h at 37 °C in 5 % CO2. Then, 10 μl of the MTT labeling reagent (final concentration 0.5 mg/ml) was added to each well and incubated for 4 h. The solubilization solution (100 μl per well) was added to dissolve the purple formazan salts generated in the viable cells, and the absorbance of each well was measured at 595 nm. Cells treated with the solvent (0.1 % DMSO) were used as a negative control and the cells cultured only with DMEM medium served as a blank control. The inhibitory rate was calculated as follows: Inhibitoryrate%=Ocontrol−ODtest/ODcontrol×100
CC50 was defined as the concentration of the derivatives that inhibited the Vero cell growth by 50 % and was calculated with the Origin v8.0 software (Origin Lab, Northampton, USA) (Qin et al. [2006]).

The target in the next data set is T1, recombinant YycG′ (Staphylococcus epidermidis, UniProt Q5HK19).
T1 construct: made in house; host or cells: E. coli BL21 (DE3)
T1 sequence (Q5HK19 370-610): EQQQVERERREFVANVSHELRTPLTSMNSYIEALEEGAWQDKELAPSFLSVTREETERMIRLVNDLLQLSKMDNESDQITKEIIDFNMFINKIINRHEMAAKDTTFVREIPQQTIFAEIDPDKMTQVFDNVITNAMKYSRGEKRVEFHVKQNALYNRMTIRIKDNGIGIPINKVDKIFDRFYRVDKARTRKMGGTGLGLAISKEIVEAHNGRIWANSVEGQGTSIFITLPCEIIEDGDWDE
The experiment in a line: Inhibition of YycG′ autophosphorylation (Kinase-Glo Luminescent Kinase Assay). The class given is biochemical, S. epidermidis. The settings on record: for inhibition of enzymatic autophosphorylation of YycG′: 100 μM derivative, YycG′ 0.13 μM; for IC50: autophosphorylation of recombinant YycG′, Kinase-Glo. The method, then: Recombinant YycG (YycG′, amino acids 370–610) was prepared by expressing the HATPase_c and HisKA domains of YycG in E. coli BL21 (DE3). In brief, the sequence coding for YycG′ was amplified from the genome of S. epidermidis ATCC 35984 by PCR and cloned into the pET28a (+) vector, which inserts a GB1 tag (B1 domain of protein G, 56 residues) to make the recombinant fusion protein highly soluble and stable. The recombinant YycG′ protein was fused to the GB1 tag at its N-terminus end, expressed in E. coli BL21 (DE3) and purified by Ni^2+ affinity chromatography on a Ni-NTA column (Qiagen, Germany). The purified YycG′ was cleaved by TEV protease and further purified by Ni-NTA and Superdex 75 gel filtration columns (GE Healthcare, USA).
The Kinase-Glo™ Luminescent Kinase Assay (Promega, Madison, WI, USA) was used to measure the inhibitory activities of the derivatives against the autophosphorylation activity of the recombinant YycG′ following the manufacturer’s recommendation. The derivatives were serially diluted from 200 to 1.6 μM with reaction buffer (40 mM Tris pH 8.0, 20 mM MgCl2, and 0.1 mg/ml BSA). Recombinant YycG′ (0.02 μg/μl) and diluted derivative were added into a 96-well plate and incubated at 25 °C for 30 min, and then 4 μM ATP was added into each well and incubated for another 30 min. Finally, 50 μl Kinase-Glo™ Reagent containing luciferase (kinase) and D-luciferin was added. The luminescent signal generated by luciferase was in proportion to the amount of ATP remaining in the reaction. Luminescence was detected by a Perkin Elmer Victor X5 luminescence plate reader, and the intensity was recorded as relative light units (RLU). The wells containing ATP and Kinase-Glo™ without YycG′ and derivatives or containing YycG′ plus ATP and Kinase-Glo™ without the derivatives were used as the controls. The percentage inhibition of protein phosphorylation (Rp) by the derivatives was calculated as follows: Rp=RLUYycG^’+derivative+ATP+Kinase-Glo^TM-RLUYycG^’+ATP+Kinase-Glo^TM/RLUATP+Kinase-Glo^TM-RLUYycG^’+ATP+Kinase-Glo^TM×100
The concentration of a derivative required to inhibit half of the autophosphorylation of recombinant YycG′ (half maximal inhibitory concentration, IC50) was calculated with Origin 8.0 software (Origin Lab, Northampton, USA). Three independent assays were carried out, and each was performed in quadruplicate.
In general terms: Kinase-Glo measures the ATP left after a reaction by luminescence.

Data set [1] has as its system S. epidermidis ATCC 35984. The experiment in a line: Derivatives combined with vancomycin or cefazolin (FIC index). The class given is cell-based. The note with it: for MIC: Staphylococcus epidermidis, ATCC35984, line paired with vancomycin, read-out: MIC Derivative alone; for MIC Derivative alone: line paired with cefazolin. From the text: Combination antimicrobial therapy is widely used to take advantage of different mechanisms of action. It may potentiate the effect of individual antimicrobial agents by synergic action (Bijnsdorp et al. [2011]; Cokol et al. [2011]). The glycopeptide antibiotics, such as vancomycin, can bind the peptidoglycan side chains in the cell wall and prevent cross-linking during cell wall synthesis. Vancomycin has been considered to be one of the most reliable therapeutic agents against staphylococcal infections, but it is unable to clear biofilms even at high concentration (128 mg/l) (Climo et al. [1999]; Darouiche et al. [1994]; Tenover et al. [2001]). […] YycGF also plays an important role in the synthesis of peptidoglycan in B. subtilis and S. aureus (Bisicchia et al. [2007]; Dubrac and Msadek [2004]). In a preliminary study, we assessed the effects of the combined application of the derivatives with vancomycin and cefazolin against S. epidermidis ATCC 35984 according to the method of Odds ([2003]) (Cottagnoud et al. [2003]). […] No antagonism was observed between the derivatives and vancomycin or cefazolin (Table S1).
17 Table S1. The derivatives combined with vancomycin or cefazolin against S. epidermidis
Derivatives Antibiotics MIC (mg/L) FICIa Synergyb
Derivative Antibiotic In combination
alone alone (Derivative/Antibiotic)
19 a The FICI was calculated as FIC indexes= (MICderivative A in combination/MICderivative A
20 alone)+(MICantibiotic B in combination/MIC antibiotic B alone).
21 b The interaction between the two antibacterials is noted as follows: FIC index≤0.5,
22 Synergy (+); 0.5<FIC index≤4 (-), No interaction; FIC≥4.0, Antagonism.

Data set [2] deals with S. epidermidis ATCC 35984. The data set can be described thus: Kinetics of killing planktonic S. epidermidis. The format is cell-based. The method, then: An overnight culture of S. epidermidis ATCC 35984 was inoculated into 20 ml of fresh MH broth at a 1:200 dilution (10^6 CFU/ml). […] Every 2 h, 100 μl of the culture was diluted and spread on agar plates. Viable bacteria (CFU) were counted and the rate and extent of killing were determined by plotting CFU/ml against time (D’Arezzo et al. [2012]; Lee et al. [2008]). This experiment was independently repeated three times.

The mark [3] stands for this setting: cefazolin combined with the labelled derivative.
Where [4] appears, read: derivative combined with cefazolin.
Where [5] appears, read: derivative combined with vancomycin.
Setting [6] is: vancomycin combined with the labelled derivative.

Molecules are shown by their SMILES. A value given as a limit tells only on which side of the number the result lay.

As a reminder, the CC50 is the concentration at which the toxic effect on the cells reaches its halfway point. Low readings indicate harm at low concentration, high ones better tolerance by the cells. One may read the IC50 as the concentration needed to halve the response being measured. The term MIC denotes the least concentration at which growth counts as inhibited. `O=C(O)c1ccc(-c2ccc(/C=C3\S/C(=N\c4ccccc4)N(c4ccc(F)cc4)C3=O)s2)cc1` [H2-81, 4-{5-{{3-(4-fluorophenyl)-2-[(4-phenyl)imino]-4-oxothiazolidin-5-ylidene}methyl}thiophene-2-yl}benzoic acid]: the CC50 at 24 h in the data set “Cytotoxicity, MTT assay” is > 200 µM. Also, the “inhibition of enzymatic autophosphorylation of YycG′” value (“inhibition” for short) at recombinant YycG′ was 79.2%. Also, at recombinant YycG′, the IC50 stood at 24.2 ± 1.2 µM. In addition, the “interaction with vancomycin or cefazolin (in words)” value in data set [1] (S. epidermidis ATCC 35984, preliminary study) was “synergistic effect”. The MIC in data set [1] came out at 0.7 µg/mL. Moreover, the “MIC In combination: antibiotic” value in data set [1] (setting [3]) and in data set [1] (setting [6]) was 1 µg/mL in each case. In addition, the FICI is reported as 0.38 in data set [1] (derivative + cefazolin) and 0.5 in data set [1] (derivative + vancomycin). Further, the “MIC In combination: derivative” value in data set [1] (setting [4]) and in data set [1] (setting [5]) was 0.18 µg/mL each time. Moreover, the “MIC Derivative alone” value in data set [1] was determined as 0.7 µg/mL. Also, in data set [2] (1/4MIC (0.38 μM) and 1/2MIC (0.75 μM), 2 to 6 h), the “effect on growth in initial treatment phase” value is reported as “inhibited the growth of S. epidermidis”. The viable cells entry in data set [2] (2 × MIC (3.1 μM), 12 h) is “less than 3 × 10^2 CFU/ml”; in data set [2] (4 × MIC (6.3 μM), 10 h) it was < 10 CFU/ml. The CFU remaining in data set [2] (4 × MIC, 10 h, as restated in discussion) is reported as ~ 10 CFU.
In the case of `CCc1ccccc1/N=C1\S/C(=C\c2ccc(OCC(=O)O)c(OC)c2)C(=O)N1c1ccccc1CC` [Compound 2, {2-{4-{3-(2-ethylphenyl)-2-[(2-ethylphenyl)imino]-4-oxothiazolidin-5-ylidene}methyl}-2-methoxyphenoxy}acetic acid], in the data set “Cytotoxicity, MTT assay”, the 50% cytotoxic concentration (CC50) at 24 h amounted to 50 µM. Besides, the half-inhibitory concentration (IC50) on recombinant YycG′ is 47.9 ± 5.3 µM.
Regarding `O=C(O)c1ccc(-c2ccc(C=C3SC(=Nc4ccc(F)cc4)N(c4ccc(F)cc4)C3=O)s2)cc1` [H2-60, 4-{5-{{3-(4-fluorophenyl)-2-[(4-fluorophenyl)imino]-4-oxothiazolidin-5-ylidene}methyl}thiophene-2-yl}benzoic acid], the CC50 at 24 h in the data set “Cytotoxicity, MTT assay” is > 200 µM. Moreover, on recombinant YycG′, the “inhibition” value worked out at 55.4%. On recombinant YycG′, the IC50 is 63.7 ± 2.3 µM. For the same compound, the minimal inhibitory concentration (MIC) in data set [1] turned out to be 1.7 µg/mL. Further, the “MIC In combination: antibiotic” value in data set [1] (setting [3]) and in data set [1] (setting [6]) was 0.25 µg/mL each time. The FICI was 0.53 in data set [1] (derivative + cefazolin) and 0.56 in data set [1] (derivative + vancomycin). Further, the “MIC In combination: derivative” value in data set [1] (setting [4]) and in data set [1] (setting [5]) was 0.85 µg/mL throughout.
Turning to `O=C(O)c1ccc(-c2ccc(/C=C3\S/C(=N\c4ccccc4)N(c4ccc(Cl)cc4)C3=O)o2)cc1` [H2-57, 4-{5-{{3-(4-chlorophenyl)-2-[(4-phenyl)imino]-4-oxothiazolidin-5-ylidene}methyl}furan-2-yl}benzoic acid], the cytotoxic concentration (CC50) at 24 h in the data set “Cytotoxicity, MTT assay” was > 200 µM. The “inhibition” value on recombinant YycG′ is given as 59.7%. In addition, the IC50 at recombinant YycG′ worked out at 47.1 ± 1.5 µM. Besides, in data set [1], the minimum inhibitory concentration (MIC) was determined as 1.7 µg/mL. The “MIC In combination: antibiotic” value stood at 0.25 µg/mL in data set [1] (setting [3]) and 0.5 µg/mL in data set [1] (setting [6]). Also, the results for the FICI in data set [1] (derivative + cefazolin) and in data set [1] (derivative + vancomycin) were 0.53 and 1.13, respectively. For the same compound, the “MIC In combination: derivative” value in data set [1] (setting [4]) was 0.85 µg/mL.
For the compound `O=C(O)c1ccc(-c2ccc(C=C3SC(=Nc4ccc(Cl)cc4)N(c4ccc(Cl)cc4)C3=O)o2)cc1` [H2-39, 4-{5-{{3-(4-chlorophenyl)-2-[(4-chlorophenyl)imino]-4-oxothiazolidin-5-ylidene}methyl}furan-2-yl}benzoic acid], the CC50 at 24 h in “Cytotoxicity, MTT assay” is > 200 µM. In addition, the “inhibition” value on recombinant YycG′ was found to be 56.3%. Also, the IC50 at recombinant YycG′ is 59.8 ± 1.4 µM. The minimal inhibitory concentration (MIC) in data set [1] was 0.8 µg/mL. Also, the “MIC In combination: antibiotic” value in data set [1] (setting [3]) was found to be 0.25 µg/mL; in data set [1] (setting [6]), 0.5 µg/mL. The FICI in data set [1] (derivative + cefazolin) was found to be 0.53; in data set [1] (derivative + vancomycin) it was 1.13. In addition, the “MIC In combination: derivative” value in data set [1] (setting [4]) came to 0.4 µg/mL; in data set [1] (setting [5]), 0.8 µg/mL. Besides, in data set [1], the “MIC Derivative alone” value is 0.8 µg/mL.
Consider `O=C(O)c1cccc(-c2ccc(C=C3SC(=Nc4ccc(Cl)cc4)N(c4ccc(Cl)cc4)C3=O)o2)c1` [H2-38, 3-{5-{{3-(4-chlorophenyl)-2-[(4-chlorophenyl)imino]-4-oxothiazolidin-5-ylidene}methyl}furan-2-yl}benzoic acid], for which, in “Cytotoxicity, MTT assay”, the CC50 at 24 h is > 200 µM. For the same compound, the “inhibition” value at recombinant YycG′ is listed as 61.8%. Besides, the concentration for half-maximal inhibition (IC50) on recombinant YycG′ was 41.4 ± 3.4 µM. The minimal inhibitory concentration (MIC) in data set [1] is 0.8 µg/mL. Besides, the “MIC In combination: antibiotic” value in data set [1] (setting [3]) and in data set [1] (setting [6]) was 0.5 µg/mL in each case. Besides, the FICI is 0.56 in data set [1] (derivative + cefazolin) and 0.63 in data set [1] (derivative + vancomycin). In addition, the “MIC In combination: derivative” value in data set [1] (setting [4]) and in data set [1] (setting [5]) was 0.4 µg/mL each time. The “MIC Derivative alone” value in data set [1] was 0.8 µg/mL.
